Experimental data taken from US20250100993A1, “2-SUBSTITUTED THIAZOLE HSD17B13 INHIBITORS AND USES THEREOF” (Inipharm, Inc., priority 2022, published 2025).

What was measured:
Format in all cases: biochemical
HSD17B13 = HSD17B13 (Homo sapiens (Human), UniProt Q7Z5P4); experiment: LC/MS estrone detection assay for HSD17B13 activity (estradiol to estrone); details: estradiol substrate, LCMS; read-out: HSD17B13 Inhibition_Estradiol Substrate_LCMS: Ki
Experimental: The liquid chromatography/mass spectrometry (LC/MS) estrone detection assay monitors the conversion of estradiol to estrone by HSD17B13. This assay was undertaken in a 96 wp format (Eppendorf deep well Plate 96/500) in an 80 μl reaction volume containing: 4 μM of Estradiol (E2; Cayman; Ser. No. 10/006,315), 6 mM NAD+(Sigma; #N0623) and 30 nM HSD17B13 enzyme (in-house; E. coli expressed His-tagged, purified, soluble protein) in a reaction containing 1M potassium phosphate buffer pH 7.4, with 0.5% vehicle (DMSO). Reactions were incubated for 2 hours at 26.5° C., and estradiol (E2) conversion to estrone (E1) was quantitated by LC-MS/MS based analyte detection for both E2 and E1 using LCMS grade reagents.
Reactions were terminated by the addition of two volumes of acetonitrile (MeCN; LCMS grade; CAS #75/05/8) containing deuterated (D4)-E1 used as internal standard (Clear Synth; #CS-T-54273; 500 ng/mL final concentration). Samples were applied to pre-prepared Bond Elut-C18 extraction cartridges (3 mL; Agilent; Ser. No. 12/102,028), washed and eluted in MeCN. Eluates were dried under nitrogen and re-suspended in 60% methanol (LCMS grade methanol; CAS #67/56/1) before submission for analysis. Aqueous linearity for E2 and E1 were included for quantification.
Analysis of samples was undertaken on a XBridge BEH C18 column (Waters; #186003033) using 0.1% Diethyl Amine in MeCN (mobile phase A; DEA CAS #109-89-7) and 0.1% Diethyl Amine in milli-Q water (mobile phase B) in a 3 min gradient allowing 25% B. Analytes were detected in negative mode using MRM analysis, with E2 having a RT of 1.85 min and E1 having a RT of 2 min. Activity of the enzyme, in the absence of NAD+, was used to evaluate specificity of conversion. Enzyme activity in the presence of test samples was expressed as a percentage of the uninhibited enzyme activity, and plotted versus inhibitor concentration. Non-linear regression was performed using a four-parameter logistic model and GraphPad Prism software (GraphPad Software, La Jolla, CA). All assessments were undertaken in duplicate evaluations and pooled during extraction process and subsequently injected as duplicates for LC-MS/MS analysis.

HSD17B14 = HSD17B14 (Homo sapiens (Human), UniProt Q9BPX1); experiment: LC/MS estrone detection assay for HSD17B14 activity (estradiol to estrone); details: selectivity for HSD17B13 over HSD17B14
Experimental: The liquid chromatography/mass spectrometry (LC/MS) estrone detection assay monitors the conversion of estradiol to estrone by HSD17B14. This assay was undertaken in a 96 well plates (Eppendorf deep well), in an 80 μl reaction volume containing: 8 μM of estradiol (E2; Cayman); 4 mM NAD+(Sigma); 120 nM HSD17B14 enzyme (in-house E. coli expressed His-tagged, purified, soluble protein); 1M potassium phosphate buffer pH 7.4, and 1.2% vehicle (DMSO). Reactions were incubated for 2 hours at 37° C. Estradiol (E2) conversion to estrone (E1) was quantitated by LC-MS/MS based analyte detection for E1 using LCMS grade reagents.
Reactions were terminated by the addition of two volumes of acetonitrile (MeCN; LCMS grade) containing deuterated (D4)-E1 used as internal standard (Clear Synth; 500 ng/mL final concentration). Samples were applied to pre-prepared Bond Elut-C18 extraction cartridges (3 mL; Agilent). The cartridges were washed with 1.5 mL water followed by 1.5 mL 5% aqueous methanol, and dried for 5 minutes under vacuum. They were then eluted with 4.5 mL MeCN. The eluates were dried under nitrogen and re-suspended in 200 μL of 60% methanol (LCMS grade) before submission for analysis. Standard curves of E2 and E1 in 4% DMSO were included for quantification.
Analysis of samples was performed on a XBridge BEH C18 column (Waters) using 0.1% Diethyl Amine in MeCN (mobile phase A) and 0.1% Diethyl Amine in milli-Q water (mobile phase B) in a 3 min gradient from 0-25% B. Analytes were detected in negative mode using MRM analysis, with E2 having a RT of 1.89 min and E1 having a RT of 2.07 min. Activity of the enzyme in the absence of NAD+ was used to evaluate specificity of conversion. Enzyme activity in the presence of test samples was expressed as a percentage of the uninhibited enzyme in the presence of 1.2% DMSO vehicle only, and plotted versus inhibitor concentration. Non-linear regression was performed using a four-parameter logistic model and GraphPad Prism software. All assessments were undertaken in duplicate evaluations, which were pooled during the extraction process and subsequently injected as duplicates for LC-MS/MS analysis.

HSD17B2 = HSD17B2 (Homo sapiens (Human), UniProt P37059); experiment: HSD17B2 activity via detection of NADH product (NAD-Glo luminescence); details: selectivity for HSD17B13 over HSD17B2
Experimental: The fluorescence based detection assay monitors the conversion of the co-factor NAD^+ to NADH, which occurs coincident with the conversion of estradiol to estrone by HSD17B2. These assays were performed in 384 well plates (Greiner V-shape PP-microplate). The 20 μl reaction volume contained: 0.7 μM estradiol (E2); 6 mM NAD^+ (Sigma); 250 nM HSD17B2 enzyme (Origene; Cat #TP303293); 0.25 M potassium phosphate buffer pH 7.4, 0.75% vehicle (DMSO). Reactions were incubated for 2 hours at 37° C., and the reaction was stopped by freezing the reaction plates at −80° C. Zero time samples were frozen immediately.
The conversion of NAD^+ to NADH was quantitated using NAD-Glo kits (Promega; Cat #G9062) according to the manufacturers' instructions. A volume of 15 μL of enzyme reaction mixture was added to 15 μL of reconstituted Glo reagent, and the plates were incubated for 30 minutes at room temperature. Luminescence was quantitated on a Tecan Spark Reader®. A standard curve of NADH ([…]) in potassium phosphate buffer pH 7.4/1% DMSO was run on each plate.
Activity of the enzyme in the absence of E2 was used to evaluate specificity of conversion. Enzyme activity in the presence of test samples was expressed as a percentage of the uninhibited enzyme in the presence of 1% DMSO vehicle only, and was plotted versus inhibitor concentration. Non-linear regression was performed using a four-parameter logistic model and GraphPad Prism software. All assessments were undertaken in duplicate evaluations.

HSD17B14, sequence (Q9BPX1 whole entry): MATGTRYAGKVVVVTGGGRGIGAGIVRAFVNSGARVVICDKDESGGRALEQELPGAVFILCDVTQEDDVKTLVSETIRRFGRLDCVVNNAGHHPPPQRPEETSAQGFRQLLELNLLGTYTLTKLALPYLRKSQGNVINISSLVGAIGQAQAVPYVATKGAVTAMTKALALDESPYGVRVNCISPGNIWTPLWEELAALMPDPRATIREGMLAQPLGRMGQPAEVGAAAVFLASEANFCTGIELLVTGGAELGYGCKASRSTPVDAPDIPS
HSD17B13, sequence (Q7Z5P4 20-300): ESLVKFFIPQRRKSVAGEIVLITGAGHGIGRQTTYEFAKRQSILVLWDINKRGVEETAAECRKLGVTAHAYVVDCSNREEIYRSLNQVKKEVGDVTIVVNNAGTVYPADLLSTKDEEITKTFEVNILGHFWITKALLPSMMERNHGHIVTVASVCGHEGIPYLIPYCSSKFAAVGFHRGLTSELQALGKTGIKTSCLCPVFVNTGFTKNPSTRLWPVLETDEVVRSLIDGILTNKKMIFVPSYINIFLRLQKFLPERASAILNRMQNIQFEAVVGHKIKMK
HSD17B2, sequence (P37059 whole entry): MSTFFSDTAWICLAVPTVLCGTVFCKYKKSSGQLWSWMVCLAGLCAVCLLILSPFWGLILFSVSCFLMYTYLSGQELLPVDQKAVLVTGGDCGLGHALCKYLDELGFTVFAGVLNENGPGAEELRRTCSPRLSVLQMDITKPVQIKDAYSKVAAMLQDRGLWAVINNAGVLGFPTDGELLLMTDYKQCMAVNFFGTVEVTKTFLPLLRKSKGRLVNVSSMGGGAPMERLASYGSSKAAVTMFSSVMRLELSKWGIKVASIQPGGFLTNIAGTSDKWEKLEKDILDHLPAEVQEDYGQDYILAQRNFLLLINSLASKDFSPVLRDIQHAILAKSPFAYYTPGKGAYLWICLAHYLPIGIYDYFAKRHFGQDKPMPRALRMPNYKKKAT

Ki (HSD17B13) | HSD17B14 fold selectivity (HSD17B14) | HSD17B2 fold selectivity (HSD17B2) | Compound
≤ 50 nM | 772 fold | – | CS(=O)(=O)c1cccc(-c2nc(C(=O)NCc3ccccc3C(F)(F)F)c(NC(=O)c3cc(Cl)c(O)c(Cl)c3)s2)c1 [Example 97]
≤ 50 nM | 928 fold | – | CS(=O)(=O)c1cccc(-c2nc(C(=O)NCc3ccccc3C(F)(F)F)c(NC(=O)c3cc(Cl)c(O)c(Cl)n3)s2)c1 [Example 98]
≤ 50 nM | 253 fold | – | CC(NC(=O)c1nc(-c2ccccc2)sc1NC(=O)c1cc(Cl)c(O)c(Cl)n1)c1ccccc1C(F)(F)F (stereo not shown) [Example 99]
≤ 50 nM | >843 fold | – | O=C(Nc1sc(-c2cnccn2)nc1C(=O)NCc1ccccc1C(F)(F)F)c1cc(Cl)c(O)c(Cl)c1 [Example 100]
≤ 50 nM | >142 fold | – | O=C(Nc1sc(-c2cnccn2)nc1C(=O)NCc1ccccc1C(F)(F)F)c1cc(Cl)c(O)c(Cl)n1 [Example 101]
≤ 50 nM | >1230 fold | – | CC(NC(=O)c1nc(-c2cccnc2)sc1NC(=O)c1cc(Cl)c(O)c(Cl)c1)c1ccccc1C(F)(F)F (stereo not shown) [Example 102]
≤ 50 nM | >1850 fold | – | CC(NC(=O)c1nc(-c2cccnc2)sc1NC(=O)c1cc(Cl)c(O)c(Cl)n1)c1ccccc1C(F)(F)F (stereo not shown) [Example 103]
50 to 100 nM | – | – | O=C(Nc1sc(-c2cc(CN3CCCC3)ccc2F)nc1C(=O)NCc1ccccc1C(F)(F)F)c1cc(F)c(O)c(Cl)c1 [Example 105, 5-(3-chloro-5-fluoro-4-hydroxybenzamido)-2-(2-fluoro-5-(pyrrolidin-1-ylmethyl)phenyl)-N-(2-(trifluoromethyl)benzyl)thiazole-4-carboxamide]
≤ 50 nM | – | – | O=C(Nc1sc(-c2ccccc2F)nc1C(=O)NCC12CC(C1)C2)c1cc(F)c(O)c(Cl)c1 [Example 106, N-(bicyclo[1.1.1]pentan-1-ylmethyl)-5-(3-chloro-5-fluoro-4-hydroxybenzamido)-2-(2-fluorophenyl)thiazole-4-carboxamide]
≤ 50 nM | – | – | O=C(Nc1sc(-c2ccccc2F)nc1C(=O)NCc1ccccc1C(F)(F)F)c1cc(Cl)c(O)c(F)n1 [Example 107, 5-(4-chloro-6-fluoro-5-hydroxypicolinamido)-2-(2-fluorophenyl)-N-(2-(trifluoromethyl)benzyl)thiazole-4-carboxamide]

Continued, molecule first:

Compound | Ki (HSD17B13) | HSD17B14 fold selectivity (HSD17B14) | HSD17B2 fold selectivity (HSD17B2)
O=C(Nc1sc(C2CC2)nc1C(=O)NCc1ccccc1C(F)(F)F)c1cc(Cl)c(O)c(Cl)n1 [Example 59, 2-cyclopropyl-5-(4,6-dichloro-5-hydroxypicolinamido)-N-(2-(trifluoromethyl)benzyl)thiazole-4-carboxamide] | ≤ 50 nM | >331 fold | –
O=C(Nc1sc(-c2ccccc2F)nc1C(=O)NCc1ccccc1C(F)(F)F)c1cc(Cl)c(O)c(Cl)n1 [Example 60, 5-(4,6-dichloro-5-hydroxypicolinamido)-2-(2-fluorophenyl)-N-(2-(trifluoromethyl)benzyl) thiazole-4-carboxamide] | ≤ 50 nM | >980 fold | –
O=C(Nc1sc(-c2ccccc2)nc1C(=O)NCc1ccccc1C(F)(F)F)c1cc(Cl)c(O)c(Cl)c1 [Example 62] | ≤ 50 nM | – | 204 fold
O=C(Nc1sc(N2CCS(=O)(=O)CC2)nc1C(=O)NCc1ccccc1C(F)(F)F)c1cc(Cl)c(O)c(Cl)c1 [Example 79, 5-(3,5-dichloro-4-hydroxybenzamido)-2-(1,1-dioxidothiomorpholino)-N-(2-(trifluoromethyl)benzyl)thiazole-4-carboxamide] | 100 to 500 nM | – | –
O=C(Nc1sc(N2CCOCC2)nc1C(=O)NCc1ccccc1C(F)(F)F)c1cc(Cl)c(O)c(Cl)n1 [Example 80, 5-(4,6-dichloro-5-hydroxypicolinamido)-2-morpholino-N-(2-(trifluoromethyl)benzyl)thiazole-4-carboxamide] | 100 to 500 nM | – | –
O=C(Nc1sc(C2CCOCC2)nc1C(=O)NCc1ccccc1C(F)(F)F)c1cc(Cl)c(O)c(Cl)n1 [Example 81, 5-(4,6-dichloro-5-hydroxypicolinamido)-2-(tetrahydro-2H-pyran-4-yl)-N-(2-(trifluoromethyl)benzyl)thiazole-4-carboxamide] | 100 to 500 nM | – | –
O=C(Nc1sc(C2CCOCC2)nc1C(=O)NCc1ccccc1C(F)(F)F)c1cc(Cl)c(O)c(Cl)c1 [Example 82, 5-(3,5-dichloro-4-hydroxybenzamido)-2-(tetrahydro-2H-pyran-4-yl)-N-(2-(trifluoromethyl)benzyl)thiazole-4-carboxamide] | 100 to 500 nM | – | –
O=C(Nc1sc(C2CCCCC2)nc1C(=O)NCc1ccccc1C(F)(F)F)c1cc(Cl)c(O)c(Cl)c1 [Example 83] | ≤ 50 nM | – | –
O=C(Nc1sc(C2CCCCC2)nc1C(=O)NCc1ccccc1C(F)(F)F)c1cc(Cl)c(O)c(Cl)n1 [Example 84] | ≤ 50 nM | – | –
CN1CC=C(c2nc(C(=O)NCc3ccccc3C(F)(F)F)c(NC(=O)c3cc(Cl)c(O)c(Cl)n3)s2)CC1 [Example 85, 5-(4,6-dichloro-5-hydroxypicolinamido)-2-(1-methyl-1,2,3,6-tetrahydropyridin-4-yl)-N-(2-(trifluoromethyl)benzyl) thiazole-4-carboxamide] | 100 to 500 nM | – | –
CN1CCC(c2nc(C(=O)NCc3ccccc3C(F)(F)F)c(NC(=O)c3cc(Cl)c(O)c(Cl)n3)s2)CC1 [Example 86, 5-(4,6-dichloro-5-hydroxypicolinamido)-2-(1-methylpiperidin-4-yl)-N-(2-(trifluoromethyl)benzyl)thiazole-4-carboxamide] | 100 to 500 nM | – | –
CN1CCC(c2nc(C(=O)NCc3ccccc3C(F)(F)F)c(NC(=O)c3cc(Cl)c(O)c(Cl)c3)s2)CC1 [Example 87] | 100 to 500 nM | – | –
O=C(Nc1sc(-c2ccccc2Cl)nc1C(=O)NCc1ccccc1C(F)(F)F)c1cc(F)c(O)c(Cl)c1 [Example 89] | ≤ 50 nM | 688 fold | –
